Results: paper PMC7175117, “Biological Evaluation and Docking Studies of New Carbamate, Thiocarbamate, and Hydrazide Analogues of Acyl Homoserine Lactones as Vibrio fischeri-Quorum Sensing Modulators” (Biomolecules, 2020)
Entries after “also recorded” stand apart in the source; their conditions may differ.

Key:
[1] = tested on: Vibrio fischeri quorum sensing system; test: Antagonistic activity: decrease of bioluminescence in competition with OHHL (200 nM) in recombinant E. coli NM522 with sensor plasmid pSB401; assay type: cell-based; conditions: for IC50: increasing concentration of compound in competition with 200 nM OHHL; for residual bioluminescence: 100 µM of analogue in competition with 200 nM OHHL
Procedure: (§1) The recombinant Escherichia coli strain NM522 with the sensor plasmid pSB401 was used to measure the induction of luminescence. Bacterial cultures were grown in Luria broth (50 mL) at 30 °C. After 18 h, this bacterial culture was diluted 10 times to be used in the assay using 96-well plates (100 µL per well). For agonistic activity, compounds were tested at increasing concentrations in DMSO (max 2% in a total volume of 200 µL of LB). For antagonistic activity, compounds were tested in competition with OHHL (200 nM) at increasing concentrations in DMSO (max 2% in a total volume of 200 µL). This 200 nM concentration of OHHL is fully pertinent since concentrations as low as 10 or 50 nM are already valid protocols as reported in meaningful studies. Bioluminescence was measured with a Tecan spark luminometer (Männedorf, Switzerland).
(§2) All compounds were evaluated for the ability to induce bioluminescence (agonistic activity) or to decrease bioluminescence in the presence of 3-oxo-hexanoyl-L-homoserine lactone (OHHL) at 200 nM (antagonistic activity). Hydrazide AHL analogues were deprived of any activity.
A first assessment of the antagonistic activity was performed by measuring residual bioluminescence at 100 µM concentration of analogues in competition with 200 nM of OHHL. […] A residual bioluminescence of 42% for the L-butyl carbamate derivative 2 vs. 89% for the D-isomer 3 was measured showing the influence of the configuration on luminescence and therefore on QS inhibition.
To determine IC50 values, the decrease of bioluminescence of was measured using increasing concentration of each compound in presence of 200 nM of OHHL (Table 1). Values ranging from 22 to 94 µM, in the range of other reported of AHL-structurally related QS inhibitors, were measured for compounds 2, 4–7, and 9–11. Differences in the calculated LogP values are consistent with inhibitory activity for most compounds except 4-nitrobenzyl analogues. This is the case for all thiocarbamates vs. carbamates, and also when comparing the butyl (2) and hexyl (4) derivatives, or the benzyl and 4-bromobenzyl substituents.

[2] = tested on: Vibrio fischeri quorum sensing system; test: Agonistic activity: induction of bioluminescence in recombinant E. coli NM522 with sensor plasmid pSB401; assay type: cell-based
Procedure: as §1, §2

SMILES | IC50 [1] [µM] | residual bioluminescence [1] [%] | other results
O=C(N[C@H]1CCOC1=O)SCc1ccccc1 [Compound 10, N-(benzylthiocarbonyl)-L-homoserine lactone] | 64 | – | –
CCCCOC(=O)N[C@H]1CCOC1=O [Compound 2, N-(butoxycarbonyl)-L-homoserine lactone] | 94 | 42 | –
CCOC(=O)N[C@H]1CCOC1=O [Compound 1, N-(ethoxycarbonyl)-L-homoserine lactone] | – | – | bioluminescence induced, relative to that obtained with the natural ligand OHHL at 200 nM ([2]; compound at 200 µM, OHHL reference at 200 nM): 18%; agonistic activity ([2]; induction of bioluminescence, increasing concentrations): weak agonistic activity; also recorded: very weak agonistic activity
O=C(N[C@H]1CCOC1=O)OCc1ccc(Br)cc1 [Compound 6, N-(4-bromobenzyloxycarbonyl)-L-homoserine lactone] | 64 | – | –
CCCCOC(=O)N[C@@H]1CCOC1=O [Compound 3, N-(butoxycarbonyl)-D-homoserine lactone] | – | 89 | –
CCCCSC(=O)N[C@H]1CCOC1=O [Compound 9, N-(butylthiocarbonyl)-L-homoserine lactone] | 45 | – | –
O=C(N[C@H]1CCOC1=O)OCc1ccccc1 [Compound 5, N-(benzyloxycarbonyl)-L-homoserine lactone] | 86 | – | –
CCCCCCOC(=O)N[C@H]1CCOC1=O [Compound 4, N-(hexyloxycarbonyl)-L-homoserine lactone] | 73 | 22 | –
